Measured values reported in patent publication US20250270191A1, “QUINOLONE BCL6 BIFUNCTIONAL DEGRADERS” (Treeline Biosciences, Inc., priority 2022, published 2025).

Molecular target: T1, Human BCL6 protein (N-terminal HiBiT tagged BCL6 in HT1080 cells) (Homo sapiens, UniProt P41182+Q96SW2)
T1 construct: Human BCL6 protein coding open reading frame; expressed in transfected cells; host or cells: HT1080 (ATCC CCL-121), stably transduced with lentivirus pLV-UBC-N-HiBiT-BCL6-PGK-puro
Assay: HiBiT based BCL6 degradation assay
Format: cell-based
Conditions: HT1080 cells expressing N-terminal HiBiT tagged BCL6; 5 hours incubation; BCL6 degradation normalized with DMSO control
Summary of the method: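 HT1080 cells stably expressing N-terminal HiBiT-BCL6 were treated with compound dilution series for 5 h at 37° C. in RPMI 1640 with 10% FBS. HiBiT lytic luminescence read after 15 min; degradation normalized to DMSO, with curves fitted by four-parameter logistic model.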

Structure (SMILES) | Ymin (5 hr)
CNC(=O)COc1cc2cc(Nc3nc(N4CCN(CC5CCN(c6cccc7c(C8CCC(=O)NC8=O)nn(C)c67)CC5)[C@@H](C)C4)ncc3Cl)ccc2n(C)c1=O (stereo partly drawn) [Compound 308b, 2-((6-((5-chloro-2-((3S)-4-((1-(3-(2,6-dioxopiperidin-3-yl)-1-methyl-1H-indazol-7-yl)piperidin-4-yl)methyl)-3-methylpiperazin-1-yl)pyrimidin-4-yl)amino)-1-methyl-2-oxo-1,2-dihydroquinolin-3-yl)oxy)-N-methylacetamide] | ++++ (Ymin ≤ 25%)
CNC(=O)COc1cc2cc(Nc3nc(NC[C@H]4CC[C@@H](Nc5cccc(C6CCC(=O)NC6=O)c5)CC4)ncc3Cl)ccc2n(C)c1=O (stereo partly shown) [Compound 262a, 2-((6-((5-chloro-2-((((1s,4s)-4-((3-(2,6-dioxopiperidin-3-yl)phenyl)amino)cyclohexyl)methyl)amino)pyrimidin-4-yl)amino)-1-methyl-2-oxo-1,2-dihydroquinolin-3-yl)oxy)-N-methylacetamide] | ++ (50% < Ymin ≤ 70%)
CNC(=O)COc1cc2cc(Nc3nc(N4CC[C@H](COc5ccc6c(C7CCC(=O)NC7=O)nn(C)c6c5)C4)ncc3Cl)ccc2n(C)c1=O (stereo partly drawn) [Compound 313a, 2-((6-((5-chloro-2-((3S)-3-(((3-(2,6-dioxopiperidin-3-yl)-1-methyl-1H-indazol-6-yl)oxy)methyl)pyrrolidin-1-yl)pyrimidin-4-yl)amino)-1-methyl-2-oxo-1,2-dihydroquinolin-3-yl)oxy)-N-methylacetamide] | ++ (50% < Ymin ≤ 70%)
CNC(=O)COc1cc2cc(Nc3nc(N4CCN([C@H](C)C5CCN(c6cccc7c(C8CCC(=O)NC8=O)nn(C)c67)CC5)CC4)ncc3Cl)ccc2n(C)c1=O (single isomer, unassigned) [Compound 307b] | +++ (25% < Ymin ≤ 50%)
CNC(=O)COc1cc2cc(Nc3nc(N4CCC(CC5CCN(c6ccc7c(C8CCC(=O)NC8=O)nn(C)c7c6)C5)CC4)ncc3Cl)ccc2n(C)c1=O (stereo not shown) [Compound 332, 2-((6-((5-chloro-2-(4-((1-(3-(2,6-dioxopiperidin-3-yl)-1-methyl-1H-indazol-6-yl)pyrrolidin-3-yl)methyl)piperidin-1-yl)pyrimidin-4-yl)amino)-1-methyl-2-oxo-1,2-dihydroquinolin-3-yl)oxy)-N-methylacetamide] | +++ (25% < Ymin ≤ 50%)
CNC(=O)COc1cc2cc(Nc3nc(NCc4ccc(CNc5cccc6c(C7CCC(=O)NC7=O)nn(C)c56)cc4)ncc3Cl)ccc2n(C)c1=O (stereo not shown) [Compound 318, 2-((6-((5-chloro-2-((4-(((3-(2,6-dioxopiperidin-3-yl)-1-methyl-1H-indazol-7-yl)amino)methyl)benzyl)amino)pyrimidin-4-yl)amino)-1-methyl-2-oxo-1,2-dihydroquinolin-3-yl)oxy)-N-methylacetamide] | ++ (50% < Ymin ≤ 70%)
CNC(=O)COc1cc2cc(Nc3nc(N4CCC[C@H](CNc5ccc(C6CCC(=O)NC6=O)cc5)C4)ncc3Cl)ccc2n(C)c1=O (stereo partly drawn) [Compound 106a, 2-((6-((5-chloro-2-((3R)-3-(((4-(2,6-dioxopiperidin-3-yl)phenyl)amino)methyl)piperidin-1-yl)pyrimidin-4-yl)amino)-1-methyl-2-oxo-1,2-dihydroquinolin-3-yl)oxy)-N-methylacetamide] | ++ (50% < Ymin ≤ 70%)
CNC(=O)COc1cc2cc(Nc3nc(N4CCN(CC5CCN(C(=O)c6ccc7c(C8CCC(=O)NC8=O)nn(C)c7c6)CC5)CC4)ncc3Cl)ccc2n(C)c1=O (stereo not shown) [Compound 321, 2-((6-((5-chloro-2-(4-((1-(3-(2,6-dioxopiperidin-3-yl)-1-methyl-1H-indazole-6-carbonyl)piperidin-4-yl)methyl)piperazin-1-yl)pyrimidin-4-yl)amino)-1-methyl-2-oxo-1,2-dihydroquinolin-3-yl)oxy)-N-methylacetamide] | +++ (25% < Ymin ≤ 50%)
CNC(=O)COc1cc2cc(Nc3nc(N4CCC[C@@H](Nc5ccc6c(C7CCC(=O)NC7=O)nn(C)c6c5)C4)ncc3Cl)ccc2n(C)c1=O (stereo partly drawn) [Compound 280b, 2-((6-((5-chloro-2-((3R)-3-((3-(2,6-dioxopiperidin-3-yl)-1-methyl-1H-indazol-6-yl)amino)piperidin-1-yl)pyrimidin-4-yl)amino)-1-methyl-2-oxo-1,2-dihydroquinolin-3-yl)oxy)-N-methylacetamide] | + (Ymin > 70%)
CNC(=O)COc1cc2cc(Nc3nc(NC[C@@H]4CCCN(c5cccc6c(C7CCC(=O)NC7=O)nn(C)c56)C4)ncc3Cl)ccc2n(C)c1=O (stereo partly drawn) [Compound 303a, 2-((6-((5-chloro-2-((((3S)-1-(3-(2,6-dioxopiperidin-3-yl)-1-methyl-1H-indazol-7-yl)piperidin-3-yl)methyl)amino)pyrimidin-4-yl)amino)-1-methyl-2-oxo-1,2-dihydroquinolin-3-yl)oxy)-N-methylacetamide] | ++ (50% < Ymin ≤ 70%)
CNC(=O)COc1cc2cc(Nc3nc(N4CCN(C[C@H]5CCN(c6ccc7c(C8CCC(=O)NC8=O)nn(C)c7c6)C5)CC4)ncc3Cl)ccc2n(C)c1=O (stereo partly drawn) [Compound 306a, 2-((6-((5-chloro-2-(4-(((3R)-1-(3-(2,6-dioxopiperidin-3-yl)-1-methyl-1H-indazol-6-yl)pyrrolidin-3-yl)methyl)piperazin-1-yl)pyrimidin-4-yl)amino)-1-methyl-2-oxo-1,2-dihydroquinolin-3-yl)oxy)-N-methylacetamide] | +++ (25% < Ymin ≤ 50%)
CNC(=O)COc1cc2cc(Nc3nc(NC[C@H]4CC[C@H](CNc5cccc6c(C7CCC(=O)NC7=O)nn(C)c56)CC4)ncc3Cl)ccc2n(C)c1=O (stereo partly shown) [Compound 297b, 2-((6-((5-chloro-2-((((1r,4r)-4-(((3-(2,6-dioxopiperidin-3-yl)-1-methyl-1H-indazol-7-yl)amino)methyl)cyclohexyl)methyl)amino)pyrimidin-4-yl)amino)-1-methyl-2-oxo-1,2-dihydroquinolin-3-yl)oxy)-N-methylacetamide] | ++ (50% < Ymin ≤ 70%)
CNC(=O)COc1cc2cc(Nc3nc(NC[C@H]4CC[C@H](Nc5cccc6c(C7CCC(=O)NC7=O)nn(C)c56)CC4)ncc3Cl)ccc2n(C)c1=O (stereo partly shown) [Compound 304b, 2-((6-((5-chloro-2-((((1r,4r)-4-((3-(2,6-dioxopiperidin-3-yl)-1-methyl-1H-indazol-7-yl)amino)cyclohexyl)methyl)amino)pyrimidin-4-yl)amino)-1-methyl-2-oxo-1,2-dihydroquinolin-3-yl)oxy)-N-methylacetamide] | ++ (50% < Ymin ≤ 70%)

Results, then the compound that gave them:

Ymin (5 hr) | Structure (SMILES)
+ (Ymin > 70%) | CNC(=O)COc1cc2cc(Nc3nc(NC[C@H]4CC[C@@H](Nc5ccc6c(C7CCC(=O)NC7=O)nn(C)c6c5)CC4)ncc3Cl)ccc2n(C)c1=O (stereo partly shown) [Compound 289a, 2-((6-((5-chloro-2-((((1s,4s)-4-((3-(2,6-dioxopiperidin-3-yl)-1-methyl-1H-indazol-6-yl)amino)cyclohexyl)methyl)amino)pyrimidin-4-yl)amino)-1-methyl-2-oxo-1,2-dihydroquinolin-3-yl)oxy)-N-methylacetamide]
++ (50% < Ymin ≤ 70%) | CNC(=O)COc1cc2cc(Nc3nc(N4CCC[C@@H]4CNc4cccc5c(C6CCC(=O)NC6=O)nn(C)c45)ncc3Cl)ccc2n(C)c1=O (stereo partly drawn) [Compound 300a, 2-((6-((5-chloro-2-((2R)-2-(((3-(2,6-dioxopiperidin-3-yl)-1-methyl-1H-indazol-7-yl)amino)methyl)pyrrolidin-1-yl)pyrimidin-4-yl)amino)-1-methyl-2-oxo-1,2-dihydroquinolin-3-yl)oxy)-N-methylacetamide]
+++ (25% < Ymin ≤ 50%) | CNC(=O)COc1cc2cc(Nc3nc(N4CCC(C5CN(c6cccc7c(C8CCC(=O)NC8=O)nn(C)c67)C5)CC4)ncc3Cl)ccc2n(C)c1=O (stereo not shown) [Compound 286, 2-((6-((5-chloro-2-(4-(1-(3-(2,6-dioxopiperidin-3-yl)-1-methyl-1H-indazol-7-yl)azetidin-3-yl)piperidin-1-yl)pyrimidin-4-yl)amino)-1-methyl-2-oxo-1,2-dihydroquinolin-3-yl)oxy)-N-methylacetamide]
++++ (Ymin ≤ 25%) | CC(=O)COc1cc2cc(Nc3nc(N4CCC5(CCN(CC6CCN(c7ccc8c(C9CCC(=O)NC9=O)nn(C)c8c7)CC6)CC5)CC4)ncc3Cl)ccc2n(C)c1=O (stereo not shown) [Compound 348, 3-(6-(4-((9-(5-chloro-4-((1-methyl-2-oxo-3-(2-oxopropoxy)-1,2-dihydroquinolin-6-yl)amino)pyrimidin-2-yl)-3,9-diazaspiro[5.5]undecan-3-yl)methyl)piperidin-1-yl)-1-methyl-1H-indazol-3-yl)piperidine-2,6-dione]
+++ (25% < Ymin ≤ 50%) | CNC(=O)COc1cc2cc(Nc3nc(N4CCC5CN(c6cccc7c(C8CCC(=O)NC8=O)nn(C)c67)CC5C4)ncc3Cl)ccc2n(C)c1=O (stereo not shown) [Compound 326, 2-((6-((5-chloro-2-(2-(3-(2,6-dioxopiperidin-3-yl)-1-methyl-1H-indazol-7-yl)octahydro-5H-pyrrolo[3,4-c]pyridin-5-yl)pyrimidin-4-yl)amino)-1-methyl-2-oxo-1,2-dihydroquinolin-3-yl)oxy)-N-methylacetamide]
++ (50% < Ymin ≤ 70%) | CNC(=O)COc1cc2cc(Nc3nc(N4CCC(CCNc5cccc(C6CCC(=O)NC6=O)c5)CC4)ncc3Cl)ccc2n(C)c1=O (stereo not shown) [Compound 263, 2-((6-((5-chloro-2-(4-(2-((3-(2,6-dioxopiperidin-3-yl)phenyl)amino)ethyl)piperidin-1-yl)pyrimidin-4-yl)amino)-1-methyl-2-oxo-1,2-dihydroquinolin-3-yl)oxy)-N-methylacetamide]
